{"source": "paper PMC8329197", "about": "“Compounds targeting OSBPL7 increase ABCA1-dependent cholesterol efflux preserving kidney function in two models of kidney disease” (Nature Communications, 2021)", "key": {"[1]": {"test_system": "Adriamycin (ADR)-induced nephropathy in Balb/c mice", "test": "ADR nephropathy: blood urea nitrogen (BUN) and serum creatinine", "format": "in vivo, mouse", "details": "28 days treatment", "from_the_text": "Supplement 41467_2021_24890_MOESM5_ESM.xlsx, sheet \"Supplementary Table 4\" | column: ADR+ Cpd A; ADR+ Cpd G; ADR+ Cpd C"}, "[2]": {"test_system": "Adriamycin (ADR)-induced nephropathy in Balb/c mice", "test": "ADR nephropathy: serum cholesterol and triglycerides", "format": "in vivo, mouse"}, "[3]": {"test_system": "Adriamycin (ADR)-induced nephropathy in Balb/c mice", "test": "Adriamycin-induced nephropathy, dose-finding pilot study: ACR and body weight time course", "details": "ADR, 10 mg/Kg/day, individual mice, 10 mg/kg/day"}, "human podocytes": {"test_system": "human podocytes", "test": "apoAI-mediated cholesterol efflux in human podocytes", "format": "cell-based", "description": "Cell lines were purchased from ATCC and subcultured for no more than passage 15, except for human podocytes, which were originally from Dr Jochen Reiser. Conditionally immortalized human podocytes were cultured under permissive conditions at 33 °C, in RPMI medium (Corning) containing 10% FBS (GIBCO), 1% penicillin/streptomycin, 0.01 mg/ml recombinant human insulin, 0.0055 mg/ml human transferrin (substantially iron-free), and 0.005 μg/ml sodium selenite (ITS, Corning). To induce differentiation, podocytes were cultured at 37 °C for 14 days in RPMI medium containing 10% FBS (GIBCO) and 1% penicillin/streptomycin. Differentiated podocytes were starved in RPMI-0.2% FBS for 18 h and then treated with 1 μM, 5 μM, and 10 μM of compounds freshly prepared in DMSO for 18 h at 37 °C as indicated.\nHuman podocytes differentiated for 13 days were labeled for 24 h at 37 °C in RPMI medium containing 2% FBS and [^3H]-cholesterol (1 μCi/ml, American Radiolabeled Chemicals). Cells were then washed 3 times with PBS and incubated with RPMI supplemented with 0.2% fat free-BSA (Sigma) with or without compounds for 18-h at 37 °C. The compounds were used at the following concentrations: Cpd C (1 μM), Cpd A (1 μM, 5 μM) and Cpd G (1 μM, 5 μM, 10 μM). Following the 18-h incubation, human apoAI (Calbiochem) was added to the media, (20 μg/mL final concentration) and the cells were incubated for another 18 h at 37 °C. Aliquots of medium collected before (T = 0 h) and after (T = 18 h) the addition of apoAI were centrifuged at 12,000 × g for 5 min and the radioactivity in the supernatant was counted by liquid scintillation. Cells were then washed with PBS, lysed 0.1% SDS, 0.1M NaOH and the radioactivity in the lysates was quantified by liquid scintillation. apoAI-mediated cholesterol efflux, expressed as %, was calculated as the amount of label released to the medium after adding apoAI (the difference in radioactivity in the medium before and after adding ApoA1) divided by the amount of total label in each well (radioactivity released to the media plus radioactivity in the lysed cells)."}, "[4]": {"test_system": "Adriamycin (ADR)-induced nephropathy in Balb/c mice", "test": "Adriamycin-induced nephropathy, main study: albumin/creatinine ratio and body weight"}, "[5]": {"details": "ADR-injected mice, 28-day treatment, 25th quartile"}, "[6]": {"details": "ADR-injected mice, 28-day treatment, 75th quartile"}, "[7]": {"details": "ADR-injected mice, 28-day treatment, group maximum"}, "[8]": {"details": "ADR-injected mice, 28-day treatment, group median"}, "[9]": {"details": "ADR-injected mice, 28-day treatment, group minimum"}, "[10]": {"details": "ADR-injected mice, 28-day treatment, individual mouse values"}}, "note": "Values joined by “and” are separate entries in the source; they are usually repeats but may differ in a detail not shown here. Equal entries are not always repeated.", "data": [{"compound": "Cc1oc(-c2cccc(C(F)(F)F)c2)nc1Cn1c(C)cc2cc(C(O)(C(F)(F)F)C(F)(F)F)ccc21", "note": "[Cpd C, reference compound]", "values": [{"measurement": "BUN, QR(25)", "setting": "[1]; 25th quartile", "result": 16, "unit": "mg/dL"}, {"measurement": "sCre, QR(25)", "setting": "[1]; 25th quartile", "result": 0.09, "unit": "mg/dL"}, {"measurement": "BUN, QR(75)", "setting": "[1]; 75th quartile", "result": 20, "unit": "mg/dL"}, {"measurement": "sCre, QR(75)", "setting": "[1]; 75th quartile", "result": 0.16, "unit": "mg/dL"}, {"measurement": "BUN, Max", "setting": "[1]; group maximum", "result": 51, "unit": "mg/dL"}, {"measurement": "sCre, Max", "setting": "[1]; group maximum", "result": 0.47, "unit": "mg/dL"}, {"measurement": "BUN, Median", "setting": "[1]; group median", "result": 17, "unit": "mg/dL"}, {"measurement": "sCre, Median", "setting": "[1]; group median", "result": 0.12, "unit": "mg/dL"}, {"measurement": "BUN, Min", "setting": "[1]; group minimum", "result": 13, "unit": "mg/dL"}, {"measurement": "sCre, Min", "setting": "[1]; group minimum", "result": 0.09, "unit": "mg/dL"}, {"measurement": "Blood Urea nitrogen (BUN)", "setting": "[1]; individual mouse values", "result": "13 mg/dL and 32 mg/dL and 18 mg/dL and 16 mg/dL and 20 mg/dL and 51 mg/dL and 17 mg/dL"}, {"measurement": "Serum Creatinine sCre", "setting": "[1]; individual mouse values", "result": "0.16 mg/dL and 0.47 mg/dL and 0.12 mg/dL and 0.09 mg/dL and 0.29 mg/dL and 0.14 mg/dL"}, {"measurement": "SERUM CHOLESTEROL", "setting": "[2]; ADR model, individual animals", "result": "104 and 64 and 223 and 112 and 98 and 124 and 145 and 136 and 60"}, {"measurement": "SERUM TRIGLYCERIDES", "setting": "[2]; ADR model, individual animals", "result": "57 and 182 and 112 and 55 and 91 and 62 and 66 and 44"}, {"measurement": "Serum cholesterol, QR(25)", "setting": "[2]; [5]", "result": 98, "unit": "mg/dL"}, {"measurement": "Serum triglycerides, QR(25)", "setting": "[2]; [5]", "result": 57, "unit": "mg/dL"}, {"measurement": "Serum cholesterol, QR(75)", "setting": "[2]; [6]", "result": 136, "unit": "mg/dL"}, {"measurement": "Serum triglycerides, QR(75)", "setting": "[2]; [6]", "result": 91, "unit": "mg/dL"}, {"measurement": "Serum cholesterol, Max", "setting": "[2]; [7]", "result": 223, "unit": "mg/dL"}, {"measurement": "Serum triglycerides, Max", "setting": "[2]; [7]", "result": 182, "unit": "mg/dL"}, {"measurement": "Serum cholesterol, Median", "setting": "[2]; [8]", "result": 112, "unit": "mg/dL"}, {"measurement": "Serum triglycerides, median", "setting": "[2]; [8]", "result": 62, "unit": "mg/dL"}, {"measurement": "Serum cholesterol, Min", "setting": "[2]; [9]", "result": 60, "unit": "mg/dL"}, {"measurement": "Serum triglycerides, Min", "setting": "[2]; [9]", "result": 44, "unit": "mg/dL"}, {"measurement": "SERUM CHOLESTEROL", "setting": "[2]; [10]", "result": "64 mg/dL and 223 mg/dL and 112 mg/dL and 98 mg/dL and 124 mg/dL and 145 mg/dL and 136 mg/dL and 60 mg/dL and 104 mg/dL"}, {"measurement": "SERUM TRIGLYCERIDES", "setting": "[2]; [10]", "result": "57 mg/dL and 62 mg/dL and 66 mg/dL and 44 mg/dL and 182 mg/dL and 112 mg/dL and 55 mg/dL and 91 mg/dL"}, {"measurement": "Cholesterol (mg/dL), Median(IQR)", "setting": "[2]; serum, after ADR challenge", "result": "112(81-141) mg/dL"}, {"measurement": "Cholesterol (mg/dL), Range", "setting": "[2]; serum, after ADR challenge", "result": "60 to 223", "unit": "mg/dL"}, {"measurement": "Cholesterol, % of the group> 112 mg/dL", "setting": "[2]; serum, after ADR challenge", "result": 30, "unit": "%"}, {"measurement": "Triglycerides (mg/dL), Median(IQR)", "setting": "[2]; serum, after ADR challenge", "result": "62(56-102) mg/dL"}, {"measurement": "Triglycerides (mg/dL), Range", "setting": "[2]; serum, after ADR challenge", "result": "44 to 182", "unit": "mg/dL"}, {"measurement": "Body Weight", "setting": "[3]; 0 days after inj", "result": "20 grams and 18 grams (2×) and 19 grams (2×)"}, {"measurement": "ACR in spot urine", "setting": "[3]; 7 days after inj", "result": "0.033 mg Albumin/ mg Creatinine in urine and 0.087 mg Albumin/ mg Creatinine in urine and 0.021 mg Albumin/ mg Creatinine in urine and 0.039 mg Albumin/ mg Creatinine in urine and 0.361 mg Albumin/ mg Creatinine in urine"}, {"measurement": "Body Weight", "setting": "[3]; 7 days after inj", "result": "19 grams (2×) and 17 grams and 18 grams (2×)"}, {"measurement": "ACR in spot urine", "setting": "[3]; 14 days after inj", "result": "43.998 mg Albumin/ mg Creatinine in urine and 97.732 mg Albumin/ mg Creatinine in urine and 170.881 mg Albumin/ mg Creatinine in urine and 0.773 mg Albumin/ mg Creatinine in urine and 96.907 mg Albumin/ mg Creatinine in urine"}, {"measurement": "Body Weight", "setting": "[3]; 14 days after inj", "result": "18 grams (2×) and 15 grams and 17 grams (2×)"}, {"measurement": "ACR in spot urine", "setting": "[3]; 21 days after inj", "result": "110.345 mg Albumin/ mg Creatinine in urine and 164.518 mg Albumin/ mg Creatinine in urine and 91.2 mg Albumin/ mg Creatinine in urine and 9.219 mg Albumin/ mg Creatinine in urine and 93.57 mg Albumin/ mg Creatinine in urine"}, {"measurement": "Body Weight", "setting": "[3]; 21 days after inj", "result": "18 grams (2×) and 13 grams and 19 grams and 16 grams"}, {"measurement": "ACR in spot urine", "setting": "[3]; 28 days after inj", "result": "28.989 mg Albumin/ mg Creatinine in urine and 87.25 mg Albumin/ mg Creatinine in urine and 19.88 mg Albumin/ mg Creatinine in urine and 5.463 mg Albumin/ mg Creatinine in urine and 97.01 mg Albumin/ mg Creatinine in urine"}, {"measurement": "Body Weight", "setting": "[3]; 28 days after inj", "result": "19 grams (2×) and 13 grams and 20 grams and 16 grams"}, {"measurement": "ApoA1-mediated cholesterol efflux (%) in podocytes", "setting": "human podocytes; 1 uM, single experiments", "result": "4.5% and 5% and 2.7% and 7.8% and 4.9% and 4.1% and 8.1%"}, {"measurement": "Increase in apoAI-mediated cholesterol efflux vs. untreated cells", "setting": "human podocytes; Cpd G 10 µM, Cpd A 5 µM, Cpd C 1 µM", "result": "~2", "unit": "fold"}, {"measurement": "Effect on weight loss", "setting": "[4]; 28 days after ADR", "result": "no significant effect to prevent weight loss"}, {"measurement": "ACR, median", "setting": "[4]; 28 days after ADR, Cpd A 30, Cpd G 100, Cpd C 10 mg/Kg, group median", "result": 6.591, "unit": "mg albumin/mg creatinine"}, {"measurement": "Reduction in ACR", "setting": "[4]; Cpd C 10 mg/Kg, 28 days", "result": "more variable reduction in ACR"}, {"measurement": "Weight (d28)", "setting": "[4]; animal weight when therapy finished, single animals", "result": "19 and 13 and 20 and 16 and 22 and 17 and 18"}, {"measurement": "Weight Change (as % of weight at day 0), Median", "setting": "[4]; day 28 after ADR, Cpd A 30, Cpd G 100, Cpd C 10 mg/Kg", "result": -5, "unit": "%"}, {"measurement": "Weight Change (as % of weight at day 0)", "setting": "[4]; day 28 after ADR, Cpd A 30, Cpd G 100, Cpd C 10 mg/Kg, single animals", "result": "5.3% and 5.6% and -15.8% and 4.8% and -15% and 0% and -10% and -5% and -27.8%"}, {"measurement": "ACR values (mg Albumin / mg Creatinine)", "setting": "[4]; spot urine 28 days after ADR, oral daily Cpd A 30, Cpd G 100, Cpd C 10 mg/Kg, single animals", "result": "97.01 mg Albumin / mg Creatinine and 0.196 mg Albumin / mg Creatinine and 5.6 mg Albumin / mg Creatinine and 6.591 mg Albumin / mg Creatinine and 5.609 mg Albumin / mg Creatinine and 28.989 mg Albumin / mg Creatinine and 87.25 mg Albumin / mg Creatinine and 19.88 mg Albumin / mg Creatinine and 5.463 mg Albumin / mg Creatinine"}]}]}
